In paper PMC9313812, “The Pseudo‐Natural Product Rhonin Targets RHOGDI” (Angewandte Chemie (International Ed. in English), 2022):

Legend:
[1] = target: T1, RHOGDI1-mediated extraction of RHOA (Homo sapiens, UniProt P52565); assay: Liposome sedimentation assay: displacement of prenylated GDP-bound RHOA by GST-RHOGDI1; type: biochemical; conditions: 50 μM compound
T1 construct: made in house; host or cells: RHOGDI1: E. coli; prenylated RHOA: insect cells (TNAO38)
Protocol: Supplementary Figure S4. Compound 7a impairs RHOGDI1 function. (a) Assay setup for the liposome sedimentation assay. (b) Displacement of prenylated GDP‐bound RAC1 from synthetic liposomes by GST-RHOGDI1 in the presence or absence of 50 μM 7a was measured using liposome floatation assay. Data is representative of three independent experiments.
Liposome-containing phase represented by fluorescent colour as result of 5% fluorescent NDB-PE was analysed by Western blotting. Data are representatives of three independent […]
experiments. (c-d) Displacement of prenylated
GDP‐bound RHO GTPases (RHOA and CDC42) from synthetic liposomes by GST‐RHOGDI1 […]
liposome sedimentation assay. Data is representative of three independent experiments. P: […]
Liposome sedimentation assay
Liposomes were prepared by self-assembly of the lipids (500 μg) containing 20% (w/w) phosphatidylethanolamine, 45% (w/w) phosphatidylcholine, 20% (w/w) phosphatidylserine, 10% (w/w) cholesterol, and 5% (w/w) phosphatidylinositol 4,5-bisphosphate. […] The resulting pellet and supernatant fractions were collected and analyzed by immunoblotting. […]
The resulting samples were centrifuged at 140000 x g for 1 h at 4 °C. The upper liposome‐ containing phase (detected by fluorescent NDB‐PE) was collected and analyzed by […]

[2] = tested on: NIH/3T3 cells; assay: Wound healing assay (cell migration); type: cell-based; conditions: 10 µM Rhonin; 2 µg/ml RHO inhibitor I; purmorphamine 2 µM
Protocol: Supplementary Figure S13. Influence of 10 µM Rhonin on cell migration in NIH/3T3 cells upon stimulation with purmorphamine (Purm, 2 µM). The RHO inhibitor I was used as a control. Cell migration was monitored by means of a wound healing assay. Data ar e representative of three independent experiments (n=3, N = 3), mean values ± SD. […]
40,000 x g for 30 min at 4°C. Supernatants were collected as cytoplasmic fraction and pellets were resuspended into a homogenization buffer (0.25 M sucrose, 20 mM Tris/HCl pH 7.4, 25 mM KCl, 5 mM MgCl2) and further centrifuged (2 h at 100,000 x g) using an iodixanol (OptiPrep, Axis Shield) gradient solution. Obtained fractions were used for immunoblotting.
NIH/3T3 cells were seeded in a 96 plate (10,000 cell per well/ plate name: Essen Bioscience NO 4379). NIH/3T3 cells were grown till 80% confluence and then serum starved (0 % FCS) for 24 h. […] Cell migration was monitored using IncuCyte ZOOM for a period of 48 h. The images were analyzed by the Incucyte Scratch Wound Analysis Software. […]
GTPase primary antibody (RAC1, CDC42 or RHOA) was added and the tubes and were incubated for 45 min at room temperature. […] Absorption was detected at 490 nm using a plate reader (Tecan Sparks).
Aqueous solubility of compounds was assessed by determination of the kinetic solubility of a test compound in aqueous buffer compared to a solution in organic solvent (acetonitrile). […]

T1 sequence (P52565 whole entry): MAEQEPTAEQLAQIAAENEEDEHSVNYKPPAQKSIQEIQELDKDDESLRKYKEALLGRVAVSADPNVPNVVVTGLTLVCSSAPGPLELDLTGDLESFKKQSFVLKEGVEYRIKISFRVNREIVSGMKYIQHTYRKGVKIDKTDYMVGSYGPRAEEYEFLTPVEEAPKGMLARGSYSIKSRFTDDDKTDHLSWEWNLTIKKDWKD

Row | Inhibition of RHOGDI1-mediated extraction of RHOA (in words) [1] | Structure (SMILES) | Wound closure / cell migration (in words) [2]
1 | inhibited | COC(=O)C1(C(CC(=O)c2ccccc2)c2ccccc2)N=C(c2ccc(Br)cc2)C2C(=O)N(C)C(=O)C21 (centres unmarked) [7a] | 
2 |  | COC(=O)C1(C(CC(=O)c2cccnc2)c2ccccc2)N=C(c2ccc(Br)cc2)C2C(=O)N(C)C(=O)C21 (centres unmarked) [7l] | moderately inhibited wound closure
